Experimental data as given in ChEMBL document CHEMBL1137817, “Potential antitumor-promoting diterpenes from the cones of Pinus luchuensis” (J Nat Prod, 2002).

Key:
Format in all cases: cell-based
Raji [1] = assay: Inhibition of 12-O-tetradecanoylphorbol 13-acetate-induced Epstein-Barr virus early antigen activation in human Raji cells assessed as EA induction at 1000 mol ratio relative to TPA; set-up: scale not given: the % may be the effect or the level left; settings: human gammaherpesvirus 4
Raji [2] = assay: Inhibition of 12-O-tetradecanoylphorbol 13-acetate-induced Epstein-Barr virus early antigen activation in human Raji cells assessed as EA induction at 100 mol ratio relative to TPA; set-up: scale not given: the % may be the effect or the level left; settings: human gammaherpesvirus 4
Raji [3] = assay: Inhibition of 12-O-tetradecanoylphorbol 13-acetate-induced Epstein-Barr virus early antigen activation in human Raji cells assessed as EA induction at 500 mol ratio relative to TPA; set-up: scale not given: the % may be the effect or the level left; settings: human gammaherpesvirus 4
Raji [4] = assay: Inhibition of 12-O-tetradecanoylphorbol 13-acetate-induced Epstein-Barr virus early antigen activation in human Raji cells assessed as EA induction at 10 mol ratio relative to TPA; set-up: scale not given: the % may be the effect or the level left; settings: human gammaherpesvirus 4
[5] = Cytotoxicity against human Raji cells assessed as cell viability at 1000 molar ratio after 48 hours relative to TPA; settings: read-out: Activity

| Structure (SMILES) | Activity (Raji [1]) | Activity (Raji [2]) | Activity (Raji [3]) | Activity (Raji [4]) | viability at 48 h, 1000 molar ratio relative to TPA [5] |
| --- | --- | --- | --- | --- | --- |
| C=C1CC[C@@H]2[C@](C)(CCC[C@]2(C)C(=O)O)[C@H]1C/C=C(\C)C(=O)O | 5% | 74.4% | 47.1% | 93.4% | 60% |
| C=C1CC[C@@H]2[C@](C)(CCC[C@]2(C)C(=O)O)[C@H]1C/C=C(\C)C=O | 0% | 68.5% | 31.4% | 91.4% | 70% |
| C=C/C(C)=C/C[C@H]1C(=C)CC[C@@H]2[C@]1(C)CCC[C@]2(C)C(=O)O | 4.4% | 75.3% | 46.2% | 90.5% | 60% |
| CC1=C(/C=C/C(C)=C/C=C/C(C)=C/C=C/C=C(C)/C=C/C=C(C)/C=C/C2=C(C)CCCC2(C)C)C(C)(C)CCC1 [BETA CAROTENE] | 9% | 82% | 34% | 100% | 90% |
| CC(C)c1ccc2c(c1)CC[C@H]1[C@](C)(C(=O)O)CCC[C@]21C [DEHYDROABIETIC ACID] | 2.9% | 69.8% | 32.7% | 97.9% | 70% |
| C=C[C@]1(C)C=C2CC[C@@H]3[C@](C)(CCC[C@@]3(C)C(=O)O)[C@H]2CC1 [SANDARACOPIMARIC ACID] | 0% | 70.4% | 22.5% | 91.9% | 70% |
